# How the values were obtained:
# [1] = target: Tyrosine-protein kinase JAK1 (Homo sapiens) (UniProt P23458)
# [2] = test system: Phosphatidylinositol 4,5-bisphosphate 3-kinase catalytic subunit alpha isoform (Homo sapiens), P42336 [E545K]
# [3] = target: Mitogen-activated protein kinase kinase kinase kinase 3 (Homo sapiens) (UniProt Q8IVH8)
# [4] = target: Mitogen-activated protein kinase 14 (Homo sapiens) (UniProt Q16539)
# [5] = target: Vascular endothelial growth factor receptor 1 (Homo sapiens) (UniProt P17948)
# [6] = test system: Tyrosine-protein kinase ABL1 (Homo sapiens), P00519 [Y253F]
# [7] = target: Interleukin-1 receptor-associated kinase 1 (Homo sapiens) (UniProt P51617)
# [8] = test system: Tyrosine-protein kinase ABL1 (Homo sapiens), P00519 [H396P]
# [9] = test system: Phosphatidylinositol 4,5-bisphosphate 3-kinase catalytic subunit alpha isoform (Homo sapiens), P42336 [M1043I]
# [10] = target: Serine/threonine-protein kinase WNK1 (Homo sapiens) (UniProt Q9H4A3)
# [11] = target: Cyclin-dependent kinase 11B (Homo sapiens) (UniProt P21127)
# [12] = target: Beta-3 adrenergic receptor (Homo sapiens, UniProt P13945); conditions: Compound concentration 10.0 uM
# [13] = target: Cyclin-dependent kinase 2 (Homo sapiens) (UniProt P24941)
# [14] = target: Mitogen-activated protein kinase 4 (Homo sapiens) (UniProt P31152)
# [15] = target: Aurora kinase B (Homo sapiens) (UniProt Q96GD4)
# [16] = target: Mast/stem cell growth factor receptor Kit (Homo sapiens) (UniProt P10721)
# Mast/stem cell growth factor receptor Kit (Homo sapiens), sequence (P10721 whole entry): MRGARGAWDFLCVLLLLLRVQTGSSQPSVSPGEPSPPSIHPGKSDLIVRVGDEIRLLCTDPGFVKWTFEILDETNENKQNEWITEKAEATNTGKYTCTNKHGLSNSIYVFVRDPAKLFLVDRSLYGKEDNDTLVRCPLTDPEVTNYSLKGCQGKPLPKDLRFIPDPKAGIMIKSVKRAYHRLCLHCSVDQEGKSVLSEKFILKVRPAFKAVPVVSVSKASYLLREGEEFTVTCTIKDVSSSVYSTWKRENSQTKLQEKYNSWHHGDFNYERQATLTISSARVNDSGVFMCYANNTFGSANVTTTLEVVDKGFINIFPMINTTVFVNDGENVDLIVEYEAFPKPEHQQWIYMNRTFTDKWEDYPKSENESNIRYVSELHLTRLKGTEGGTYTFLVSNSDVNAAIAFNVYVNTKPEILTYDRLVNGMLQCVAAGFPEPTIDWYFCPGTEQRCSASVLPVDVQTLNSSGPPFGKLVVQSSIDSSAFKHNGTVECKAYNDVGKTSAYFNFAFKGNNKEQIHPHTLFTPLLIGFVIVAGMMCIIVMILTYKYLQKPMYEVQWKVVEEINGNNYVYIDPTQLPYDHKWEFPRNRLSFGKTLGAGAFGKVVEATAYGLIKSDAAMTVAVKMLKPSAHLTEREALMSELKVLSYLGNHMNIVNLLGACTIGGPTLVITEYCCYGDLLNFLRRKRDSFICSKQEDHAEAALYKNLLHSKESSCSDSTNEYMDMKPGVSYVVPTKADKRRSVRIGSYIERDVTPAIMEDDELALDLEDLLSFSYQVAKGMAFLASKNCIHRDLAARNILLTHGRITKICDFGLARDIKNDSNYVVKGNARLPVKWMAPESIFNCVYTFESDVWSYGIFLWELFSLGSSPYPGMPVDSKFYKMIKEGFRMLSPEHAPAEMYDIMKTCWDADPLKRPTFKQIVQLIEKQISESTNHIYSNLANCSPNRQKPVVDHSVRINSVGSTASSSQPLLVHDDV
# [17] = target: Serine/threonine-protein kinase NLK (Homo sapiens) (UniProt Q9UBE8)
# [18] = target: Discoidin domain-containing receptor 2 (Homo sapiens) (UniProt Q16832)
# [19] = target: cAMP-dependent protein kinase catalytic subunit alpha (Homo sapiens) (UniProt P17612)
# [20] = target: Mitogen-activated protein kinase kinase kinase kinase 5 (Homo sapiens) (UniProt Q9Y4K4)
# [21] = test system: Receptor-type tyrosine-protein kinase FLT3 (Homo sapiens), P36888 [D835H]
# [22] = target: 5-hydroxytryptamine receptor 1B (Homo sapiens) (UniProt P28222); conditions: Compound concentration 10.0 uM
# [23] = target: Inhibitor of nuclear factor kappa-B kinase subunit alpha (Homo sapiens) (UniProt O15111)
# [24] = target: Serine/threonine-protein kinase PAK 2 (Homo sapiens) (UniProt Q13177)
# [25] = target: Peripheral plasma membrane protein CASK (Homo sapiens) (UniProt O14936)
# [26] = target: Mitogen-activated protein kinase 11 (Homo sapiens) (UniProt Q15759)
# [27] = target: Myosin light chain kinase (Homo sapiens) (UniProt Q32MK0)
# [28] = target: Beta-1 adrenergic receptor (Homo sapiens) (UniProt P08588); conditions: Compound concentration 10.0 uM
# [29] = target: Insulin-like growth factor 1 receptor (Homo sapiens) (UniProt P08069)
# Insulin-like growth factor 1 receptor (Homo sapiens), sequence (P08069 31-736 limits assumed): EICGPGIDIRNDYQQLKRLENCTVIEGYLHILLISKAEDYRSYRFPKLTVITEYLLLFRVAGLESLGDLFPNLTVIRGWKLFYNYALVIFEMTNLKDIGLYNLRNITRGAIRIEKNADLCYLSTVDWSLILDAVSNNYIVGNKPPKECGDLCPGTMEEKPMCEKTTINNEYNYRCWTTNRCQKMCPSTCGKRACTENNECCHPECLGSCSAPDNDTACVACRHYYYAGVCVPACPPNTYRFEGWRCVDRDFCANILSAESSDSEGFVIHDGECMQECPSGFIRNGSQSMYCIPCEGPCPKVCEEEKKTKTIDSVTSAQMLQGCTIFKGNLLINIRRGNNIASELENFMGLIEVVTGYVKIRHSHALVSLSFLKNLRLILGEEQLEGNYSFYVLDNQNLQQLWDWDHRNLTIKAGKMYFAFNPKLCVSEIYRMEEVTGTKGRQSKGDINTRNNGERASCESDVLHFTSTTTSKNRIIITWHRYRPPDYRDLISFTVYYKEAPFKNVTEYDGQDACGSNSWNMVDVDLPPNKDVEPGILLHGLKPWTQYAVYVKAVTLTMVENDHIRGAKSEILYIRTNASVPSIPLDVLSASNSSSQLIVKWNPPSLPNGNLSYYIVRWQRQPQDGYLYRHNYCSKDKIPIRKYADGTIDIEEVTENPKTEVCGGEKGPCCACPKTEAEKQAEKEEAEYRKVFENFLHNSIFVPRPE
# Insulin-like growth factor 1 receptor (Homo sapiens), sequence (P08069 741-1367 limits assumed): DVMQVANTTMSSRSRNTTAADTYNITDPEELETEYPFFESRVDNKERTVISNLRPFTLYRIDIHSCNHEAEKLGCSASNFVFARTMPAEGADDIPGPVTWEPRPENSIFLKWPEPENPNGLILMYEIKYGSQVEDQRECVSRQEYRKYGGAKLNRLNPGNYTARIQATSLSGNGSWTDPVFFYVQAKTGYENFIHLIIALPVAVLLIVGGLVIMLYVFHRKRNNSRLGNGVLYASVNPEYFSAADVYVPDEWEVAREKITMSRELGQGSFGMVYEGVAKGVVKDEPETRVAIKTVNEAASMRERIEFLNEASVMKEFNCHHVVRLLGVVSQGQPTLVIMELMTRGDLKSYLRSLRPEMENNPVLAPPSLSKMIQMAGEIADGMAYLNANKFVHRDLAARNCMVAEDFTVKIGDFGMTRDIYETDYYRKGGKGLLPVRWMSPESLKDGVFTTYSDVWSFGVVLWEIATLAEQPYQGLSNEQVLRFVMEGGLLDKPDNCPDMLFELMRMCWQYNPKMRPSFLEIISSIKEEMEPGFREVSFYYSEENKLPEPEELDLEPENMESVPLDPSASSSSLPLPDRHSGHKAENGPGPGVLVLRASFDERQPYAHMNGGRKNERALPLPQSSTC
# [30] = target: Vascular endothelial growth factor receptor 2 (Homo sapiens, UniProt P35968)
# Vascular endothelial growth factor receptor 2, sequence (P35968 whole entry): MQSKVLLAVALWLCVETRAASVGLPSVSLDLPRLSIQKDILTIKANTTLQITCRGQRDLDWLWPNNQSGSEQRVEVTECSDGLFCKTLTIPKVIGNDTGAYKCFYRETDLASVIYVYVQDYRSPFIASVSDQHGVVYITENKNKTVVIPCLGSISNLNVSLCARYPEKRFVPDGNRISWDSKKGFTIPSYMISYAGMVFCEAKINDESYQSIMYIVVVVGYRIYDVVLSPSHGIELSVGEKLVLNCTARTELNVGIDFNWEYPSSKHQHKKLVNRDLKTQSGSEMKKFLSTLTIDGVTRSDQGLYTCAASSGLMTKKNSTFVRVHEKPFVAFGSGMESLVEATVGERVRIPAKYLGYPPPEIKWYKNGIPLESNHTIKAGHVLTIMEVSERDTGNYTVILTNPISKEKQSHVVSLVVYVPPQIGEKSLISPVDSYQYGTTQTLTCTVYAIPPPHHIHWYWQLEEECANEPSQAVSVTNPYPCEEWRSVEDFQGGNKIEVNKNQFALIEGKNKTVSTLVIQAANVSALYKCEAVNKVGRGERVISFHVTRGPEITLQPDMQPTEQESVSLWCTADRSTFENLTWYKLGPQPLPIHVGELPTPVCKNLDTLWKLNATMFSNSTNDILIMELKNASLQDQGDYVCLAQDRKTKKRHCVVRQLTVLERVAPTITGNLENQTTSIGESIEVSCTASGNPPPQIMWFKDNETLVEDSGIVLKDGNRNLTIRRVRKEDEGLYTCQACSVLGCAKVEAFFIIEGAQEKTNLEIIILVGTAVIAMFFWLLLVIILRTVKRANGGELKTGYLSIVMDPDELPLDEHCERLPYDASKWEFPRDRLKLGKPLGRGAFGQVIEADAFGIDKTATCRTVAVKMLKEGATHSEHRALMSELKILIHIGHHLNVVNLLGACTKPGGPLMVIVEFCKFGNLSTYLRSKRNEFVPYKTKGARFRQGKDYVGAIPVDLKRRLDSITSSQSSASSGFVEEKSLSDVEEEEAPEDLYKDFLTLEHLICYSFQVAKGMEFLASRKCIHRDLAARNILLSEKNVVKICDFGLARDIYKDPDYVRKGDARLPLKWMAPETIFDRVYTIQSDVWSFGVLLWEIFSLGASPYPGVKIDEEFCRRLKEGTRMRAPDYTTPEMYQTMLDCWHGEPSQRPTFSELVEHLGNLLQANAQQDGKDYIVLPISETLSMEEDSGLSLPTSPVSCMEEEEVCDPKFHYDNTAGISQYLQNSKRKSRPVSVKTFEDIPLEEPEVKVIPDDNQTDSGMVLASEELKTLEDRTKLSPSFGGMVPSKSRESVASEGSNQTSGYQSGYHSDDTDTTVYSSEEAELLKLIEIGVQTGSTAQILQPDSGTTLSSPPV
# [31] = target: Serine/threonine-protein kinase D1 (Homo sapiens) (UniProt Q15139)
# [32] = target: Alpha-2A adrenergic receptor (Homo sapiens) (UniProt P08913); conditions: Compound concentration 10.0 uM
# [33] = target: Ephrin type-A receptor 8 (Homo sapiens) (UniProt P29322)
# [34] = target: Tyrosine-protein kinase Lyn (Homo sapiens) (UniProt P07948)
# [35] = target: Bone morphogenetic protein receptor type-1B (Homo sapiens) (UniProt O00238)
# [36] = target: cGMP-dependent protein kinase 2 (Homo sapiens) (UniProt Q13237)
# [37] = target: Serine/threonine-protein kinase ULK1 (Homo sapiens) (UniProt O75385)
# [38] = target: Serine/threonine-protein kinase PAK 1 (Homo sapiens) (UniProt Q13153)
# [39] = target: Uncharacterized serine/threonine-protein kinase SBK3 (Homo sapiens) (UniProt P0C264)
# [40] = target: Tyrosine-protein kinase Mer (Homo sapiens) (UniProt Q12866)
# [41] = target: Serine/threonine-protein kinase 24 (Homo sapiens) (UniProt Q9Y6E0)
# [42] = target: Casein kinase I isoform delta (Homo sapiens) (UniProt P48730)
# [43] = target: Mitogen-activated protein kinase kinase kinase 6 (Homo sapiens) (UniProt O95382)
# [44] = target: Serine/threonine-protein kinase Nek1 (Homo sapiens) (UniProt Q96PY6)
# Serine/threonine-protein kinase Nek1 (Homo sapiens), sequence (Q96PY6 whole entry): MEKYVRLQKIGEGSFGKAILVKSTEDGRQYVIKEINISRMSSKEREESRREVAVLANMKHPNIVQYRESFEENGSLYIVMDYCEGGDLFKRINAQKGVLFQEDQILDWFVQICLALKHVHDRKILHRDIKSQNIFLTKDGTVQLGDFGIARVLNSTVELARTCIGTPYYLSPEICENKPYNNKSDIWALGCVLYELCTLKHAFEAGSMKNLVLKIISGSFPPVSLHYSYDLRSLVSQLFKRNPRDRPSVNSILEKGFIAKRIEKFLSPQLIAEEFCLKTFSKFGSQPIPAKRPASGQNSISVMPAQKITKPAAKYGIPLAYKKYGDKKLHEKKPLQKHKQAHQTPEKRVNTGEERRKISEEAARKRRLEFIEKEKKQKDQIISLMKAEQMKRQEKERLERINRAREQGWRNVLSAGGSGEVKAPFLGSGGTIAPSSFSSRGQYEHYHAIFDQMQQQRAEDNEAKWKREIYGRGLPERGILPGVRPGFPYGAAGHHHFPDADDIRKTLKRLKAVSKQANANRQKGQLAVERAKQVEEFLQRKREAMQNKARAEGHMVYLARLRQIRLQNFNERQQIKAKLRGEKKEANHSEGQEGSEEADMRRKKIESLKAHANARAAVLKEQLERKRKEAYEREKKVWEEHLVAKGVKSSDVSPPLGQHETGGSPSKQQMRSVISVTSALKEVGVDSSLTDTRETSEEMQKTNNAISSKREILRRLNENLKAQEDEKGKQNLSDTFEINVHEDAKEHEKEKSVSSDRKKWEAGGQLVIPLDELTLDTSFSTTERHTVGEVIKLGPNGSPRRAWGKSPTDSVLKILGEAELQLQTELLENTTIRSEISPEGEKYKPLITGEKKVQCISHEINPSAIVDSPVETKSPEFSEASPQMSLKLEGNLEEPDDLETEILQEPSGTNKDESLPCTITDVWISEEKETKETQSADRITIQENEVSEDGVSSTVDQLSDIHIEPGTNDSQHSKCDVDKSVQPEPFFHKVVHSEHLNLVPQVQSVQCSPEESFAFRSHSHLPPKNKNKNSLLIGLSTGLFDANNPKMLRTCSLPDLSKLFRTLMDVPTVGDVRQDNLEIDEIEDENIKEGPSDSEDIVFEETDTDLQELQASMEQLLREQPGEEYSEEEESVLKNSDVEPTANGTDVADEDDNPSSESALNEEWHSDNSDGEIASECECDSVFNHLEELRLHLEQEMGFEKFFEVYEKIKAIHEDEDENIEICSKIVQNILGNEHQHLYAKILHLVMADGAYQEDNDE
# [45] = test system: Mast/stem cell growth factor receptor Kit (Homo sapiens), P10721 [D816H]
# Mast/stem cell growth factor receptor Kit (Homo sapiens), P10721 [D816H], sequence (P10721 whole entry D816H): as the sequence (P10721 whole entry) above, with D816H counted along it
# [46] = Compound concentration 1000.0 nM
# [47] = Compound concentration 100.0 nM
compound,measurement,setting,value
Cc1cc(NC(=O)c2cccc(S(F)(F)(F)(F)F)c2)cc(-n2ccn3nc(-c4cccnc4)cc23)c1 [BAY-309],residual activity,[1]; [46],100%
same,residual activity,[2]; [46],72.5%
same,residual activity,[3]; [46],100%
same,residual activity,[4]; [46],100%
same,residual activity,[5]; [46],100%
same,residual activity,[6]; [46],100%
same,residual activity,[7]; [46],96%
same,residual activity,[8]; [46],66.9%
same,residual activity,[9]; [46],30.3%
same,residual activity,[10]; [46],100%
same,residual activity,[11]; [46],100%
same,inhibition,[12],32.3%
same,residual activity,[13]; [46],100%
same,residual activity,[14]; [46],50.4%
same,residual activity,[15]; [46],82%
same,residual activity,[16]; [46],89.5%
same,residual activity,[17]; [46],100%
same,residual activity,[18]; [46],18.2%
same,residual activity,[19]; [46],100%
same,residual activity,[20]; [46],100%
same,residual activity,[21]; [46],99.9%
same,inhibition,[22],36.8%
same,residual activity,[23]; [46],71.1%
same,residual activity,[24]; [46],100%
same,residual activity,[25]; [46],68.1%
same,residual activity,[26]; [46],98.1%
same,residual activity,[27]; [46],100%
same,inhibition,[28],-7.94%
same,residual activity,[29]; [46],100%
same,residual activity,[30]; [46],68.3%
same,residual activity,[31]; [46],100%
same,inhibition,[32],15.8%
same,residual activity,[33]; [46],100%
same,residual activity,[34]; [46],100%
same,residual activity,[35]; [46],100%
same,residual activity,[36]; [46],100%
same,residual activity,[37]; [46],100%
same,residual activity,[38]; [46],90.9%
same,residual activity,[39]; [46],100%
same,residual activity,[40]; [46],100%
same,residual activity,[41]; [46],100%
same,residual activity,[42]; [46],100%
same,residual activity,[43]; [46],62.7%
same,residual activity,[44]; [46],100%
same,residual activity,[45]; [46],73.1%
Cc1cc(C)c(-n2ccn3nc(-c4cccnc4)cc23)cc1NC(=O)c1cc(C#N)cc(S(F)(F)(F)(F)F)c1 [BAY-826],residual activity,[1]; [47],100%
same,residual activity,[2]; [47],77.8%
same,residual activity,[3]; [47],89.6%
same,residual activity,[4]; [47],0%
same,residual activity,[5]; [47],91.5%
same,residual activity,[6]; [47],68.6%
same,residual activity,[7]; [47],87.3%
same,residual activity,[8]; [47],69%
same,residual activity,[9]; [47],100%
same,residual activity,[10]; [47],97.3%
same,residual activity,[11]; [47],93.2%
same,inhibition,[12],52.3%
same,residual activity,[13]; [47],99%
same,residual activity,[14]; [47],86.3%
same,residual activity,[15]; [47],98.8%
same,residual activity,[16]; [47],44.5%
same,residual activity,[17]; [47],100%
same,residual activity,[18]; [47],1.8%
same,residual activity,[19]; [47],95.6%
same,residual activity,[20]; [47],83.4%
same,residual activity,[21]; [47],87.8%
same,inhibition,[22],14.4%
same,residual activity,[23]; [47],100%
same,residual activity,[24]; [47],89.8%
same,residual activity,[25]; [47],86.6%
same,residual activity,[26]; [47],93.4%
same,residual activity,[27]; [47],100%
same,inhibition,[28],9.41%
same,residual activity,[29]; [47],84.7%
same,residual activity,[30]; [47],76.2%
same,residual activity,[31]; [47],81.2%
same,inhibition,[32],11.1%
same,residual activity,[33]; [47],83.5%
same,residual activity,[34]; [47],46%
same,residual activity,[35]; [47],72.3%
same,residual activity,[36]; [47],82.7%
same,residual activity,[37]; [47],100%
same,residual activity,[38]; [47],82.2%
same,residual activity,[39]; [47],100%
same,residual activity,[40]; [47],83.6%
same,residual activity,[41]; [47],75.9%
same,residual activity,[42]; [47],100%
same,residual activity,[43]; [47],100%
same,residual activity,[44]; [47],100%
same,residual activity,[45]; [47],81.8%
